The text below walks through data of patent US9023858B2, “Substituted pyrido[2,3-d]pyrimidines as delta-5-desaturase inhibitors” (Takeda Pharmaceutical Company Limited, priority 2010, dated 2015).

The target in test [1] is T1, delta-5-desaturase (Homo sapiens, UniProt O60427).
T1 construct: endogenous in cells; host or cells: HepG2
As to the kind of experiment: Delta-5-desaturase inhibitory activity using HepG2 cell. Type of test: cell-based. Particulars: test compound 1 μM. Here is the method:
Delta-5-Desaturase Inhibitory Activity Using HepG2 Cell
HepG2 was plated on a 96-well plate at 1×10^5 cells/well, and cultured overnight in DMEM (Dulbecco's modified Eagle medium) containing 10% FBS (fetal bovine serum). After washing (200 μL×2) with PBS (phosphate buffered saline), 40 μL of a reaction medium (DMEM, penicillin/streptomycin, 0.3% BSA) containing the test compound was added, and the mixture was preincubated in a CO2 incubator at 37° C. for 30 min. The reaction was started by adding a reaction medium (20 μL) containing 0.1 μCi [^14C]Eicosatrienoic acid, and the mixture was incubated in a CO2 incubator at 37° C. Incubation was performed for 3 hr, the cells were washed twice with 200 μL of PBS, detached with 50 μL of trypsin-EDTA and placed on a 96-deep well block. Furthermore, 20 μL of 2.5N NaOH was added, the plate was sealed and incubated overnight at 55° C. to allow saponification. The fatty acid extraction included acidifying with 10 μL of formic acid, adding chloroform:methanol (1:4), stirring, and further adding 200 μL of pure water to separate into two layers. The operation after development with TLC followed the method of detection system using TLC in a system using a rat liver microsome. A delta-5-desaturase inhibitory rate (%) of 1 μM test compound was determined.

Test [2] concerns the target T2, delta-5-desaturase (Rattus norvegicus, UniProt Q920R3).
T2 construct: a rat liver microsome fraction (10 μl) diluted to 3 mg/ml with a microsome buffer; from tissue; host or cells: rat liver microsome fraction
The experiment in a line: Inhibitory activity on binding of [3H]-labelled Reference Example 1 ligand to delta-5-desaturase (rat liver microsome fraction). The settings on record: test compound 10 μM, 3 nM tritiated ligand of Reference Example 1, read-out: Binding inhibitory activity against compound bind to delta-5-desaturase Binding inhibition rate (%) at 10 μM. Here is the method:
Inhibitory Activity on Binding of N-[2-({4-oxo-3-[4-(2,2,2-trifluoroethoxy)[2,6-^3H2]phenyl]-3,4-dihydrothieno[3,4-d]pyrimidin-2-yl}sulfanyl)ethyl]acetamide (Reference Example 1) to delta-5-desaturase)
All tests were performed at room temperature at 200 μL/well. A rat liver microsome fraction (30 μg/well) was preincubated with a test compound at a final concentration of 10 μM for 15 min in an assay buffer (10 mM Tris-HCl (pH 7.5), 100 mM KCl, 10 mM NaF, 3 mM MgCl2, 0.005% Tween20 and 1 mM GSH). N-[2-({4-oxo-3-[4-(2,2,2-trifluoroethoxy) [2,6-^3H2]phenyl]-3,4-dihydrothieno[3,4-d]pyrimidin-2-yl}sulfanyl)ethyl]acetamide was added to a final concentration of 3 nM and the mixture was incubated for 150 min. For Bound/Free separation, the membrane fraction was added on a GF/C glass filter using a cell harvester. The GF/C glass filter was washed 5 times with 300 μl of ice-cooled assay buffer (without 0.005% Tween) to separate the ligand bound to delta-5-desaturase. 50 μl of MicroScinti 0 was added, and the radioactivity on the filter was measured by TopCount. To evaluate non-specific binding, 10 μM N-[2-({4-oxo-3-[4-(2,2,2-trifluoroethoxy)phenyl]-3,4-dihydrothieno[3,4-d]pyrimidin-2-yl}sulfanyl)ethyl]acetamide was used. The inhibitory rate (%) of the test compound (10 μM) on the binding of N-[2-({4-oxo-3-[4-(2,2,2-trifluoroethoxy) [2,6-^3H2]phenyl]-3,4-dihydrothieno[3,4-d]pyrimidin-2-yl}sulfanyl)ethyl]acetamide to delta-5-desaturase was determined.
In general terms: Liver microsomes are vesicles of endoplasmic reticulum, rich in cytochrome P450 enzymes.

Test [3] addresses T2, delta-5-desaturase. The experiment in a line: Delta-5-desaturase inhibitory activity using rat liver microsome. Type of test: biochemical. Particulars: test compound 10 μM. Here is the method: Delta-5-Desaturase Inhibitory Activity Using Rat Liver Microsome
The inhibitory activity of the test compound on delta-5-desaturase was measured by the method described below. To a solution of the test compound in DMSO prepared in advance was secondarily diluted with a buffer (300 mM NaH2PO4 [pH 7.4], 450 mM KCl, 30 mM NaF, 9 mM MgCl2, 4.5 mM glutathione [reduced form], 0.3% BSA [fatty acid free, SIGMA]) to give an assay buffer. The assay buffer (10 μl) was dispensed to a polypropylene deep 96-well block, and a rat liver microsome fraction (10 μl) diluted to 3 mg/ml with a microsome buffer (10 mM Tris-HCl [pH 7.4], 1 mM EDTA, 250 mM sucrose) was added. The enzyme reaction was started by adding 9 mM NADH, 9 mM ATP, 0.9 mM CoA, 10 μCi/ml (8E,11E,14E)-(1-^14C)eicosa-8,11,14-trienoic acid (PerkinElmer Inc.) (10 μl). The enzyme reaction was performed for 120 min at room temperature, and discontinued by the addition of 10 μl of 2.5M NaOH. After discontinuation of the reaction, the plate was sealed and incubated overnight at 55° C. to allow saponification. The fatty acid was extracted with solvent based on the Bligh & Dyer method described in Can. J. Biochem. Physiol., vol. 37, page 911 (1959) by adding formic acid:methanol:chloroform (1:6:3) (200 μl), maintaining the single layer state, sufficiently stirring the mixture and adding pure water (120 μl) for separation into two layers. The lower chloroform layer (10 μl) was spotted on a reversed-phase TLC plate (RP-18, 1154230001, Merck Japan, Ltd.), developed with acetonitrile:pure water:acetic acid (95:4.5:0.5), and the dried TLC plate was transcribed on Imaging Plate (Fuji Photo Film Co., Ltd.) for 5 hr or longer. The detection was performed using BAS-5000 (Fuji Photo Film Co., Ltd.), and the obtained spot image was numerically converted by Multi Gauge Ver2.3 (Fuji Photo Film Co., Ltd.) and a delta-5-desaturase inhibitory rate (%) of 10 μM test compound was determined.

T1 sequence (O60427 whole entry): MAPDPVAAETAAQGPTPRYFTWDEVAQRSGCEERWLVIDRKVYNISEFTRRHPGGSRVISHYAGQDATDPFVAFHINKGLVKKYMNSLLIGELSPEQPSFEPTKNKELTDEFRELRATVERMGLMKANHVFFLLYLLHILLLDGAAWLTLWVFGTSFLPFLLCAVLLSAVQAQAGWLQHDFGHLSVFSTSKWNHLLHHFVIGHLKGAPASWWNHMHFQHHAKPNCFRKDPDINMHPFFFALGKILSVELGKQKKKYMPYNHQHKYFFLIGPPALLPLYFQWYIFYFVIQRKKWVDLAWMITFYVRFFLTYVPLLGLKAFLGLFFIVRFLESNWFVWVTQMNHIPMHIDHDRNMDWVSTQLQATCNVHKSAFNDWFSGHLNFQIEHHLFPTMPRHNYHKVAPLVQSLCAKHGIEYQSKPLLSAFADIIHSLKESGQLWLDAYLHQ
T2 sequence (Q920R3 whole entry): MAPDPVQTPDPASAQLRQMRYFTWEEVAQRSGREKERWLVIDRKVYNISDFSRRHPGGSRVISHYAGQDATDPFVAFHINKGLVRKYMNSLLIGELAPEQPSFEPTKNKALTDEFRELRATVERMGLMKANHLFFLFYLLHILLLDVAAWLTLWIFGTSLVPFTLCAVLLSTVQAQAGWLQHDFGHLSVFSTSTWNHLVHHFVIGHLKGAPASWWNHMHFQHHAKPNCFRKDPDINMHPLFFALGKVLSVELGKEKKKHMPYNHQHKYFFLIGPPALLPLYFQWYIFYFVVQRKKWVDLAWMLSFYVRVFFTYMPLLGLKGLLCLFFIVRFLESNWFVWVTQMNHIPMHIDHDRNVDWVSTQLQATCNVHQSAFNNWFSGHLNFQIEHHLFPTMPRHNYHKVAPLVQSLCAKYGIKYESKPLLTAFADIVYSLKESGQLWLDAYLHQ

In the case of `CCSc1nc2c(c(=O)n1-c1ccc(OCC(F)(F)F)cc1)SCC(=O)N2` [Example 25, 2-(ethylsulfanyl)-3-[4-(2,2,2-trifluoroethoxy)phenyl]-3H-pyrimido[5,4-b][1,4]thiazine-4,7(6H,8H)-dione], the inhibition at 1 µM against delta-5-desaturase [1] came to 92%. Moreover, the inhibition at 10 µM at delta-5-desaturase [2] and against delta-5-desaturase [3] was 98% throughout.
With `CCSc1nc2nc(N)ccc2c(=O)n1-c1ccc(OCC(F)(F)F)cc1` [Example 26, 7-amino-2-(ethylsulfanyl)-3-[4-(2,2,2-trifluoroethoxy)phenyl]pyrido[2,3-d]pyrimidin-4(3H)-one], the inhibition at 1 µM on delta-5-desaturase [1] turned out to be 107%. For the same molecule, the inhibition at 10 µM at delta-5-desaturase [2] came out at 96%; on delta-5-desaturase [3] it was 102%.
With `CCSc1nc2nc(C(N)=O)ccc2c(=O)n1-c1ccc(OCC(F)(F)F)cc1` [Example 27, 2-(ethylsulfanyl)-4-oxo-3-[4-(2,2,2-trifluoroethoxy)phenyl]-3,4-dihydropyrido[2,3-d]pyrimidine-7-carboxamide], at delta-5-desaturase [1], the inhibition at 1 µM was determined as 98%. Further, the inhibition at 10 µM was found to be 93% at delta-5-desaturase [2] and 97% against delta-5-desaturase [3].
Take `CCSc1nc2c(c(=O)n1-c1ccc(OCC(F)(F)F)cc1)CCNC2=O` [Example 28, 2-(ethylsulfanyl)-3-[4-(2,2,2-trifluoroethoxy)phenyl]-3,5,6,7-tetrahydropyrido[3,4-d]pyrimidine-4,8-dione]: on delta-5-desaturase [1], the inhibition at 1 µM was 89%. In addition, the inhibition at 10 µM on delta-5-desaturase [2] and against delta-5-desaturase [3] was 92% throughout.
On to `CCSc1nc2c(=O)[nH]ccc2c(=O)n1-c1ccc(OCC(F)(F)F)cc1` [Example 29, 2-(ethylsulfanyl)-3-[4-(2,2,2-trifluoroethoxy)phenyl]-3,7-dihydropyrido[3,4-d]pyrimidine-4,8-dione], for which the inhibition at 1 µM against delta-5-desaturase [1] was found to be 96%. Moreover, the inhibition at 10 µM at delta-5-desaturase [2] was 97%; against delta-5-desaturase [3] it was 99%.
Take `CCCSc1nc2c(=O)[nH]ccc2c(=O)n1-c1ccc(OCC(F)(F)F)cc1` [Example 30, 2-(propylsulfanyl)-3-[4-(2,2,2-trifluoroethoxy)phenyl]-3,7-dihydropyrido[3,4-d]pyrimidine-4,8-dione]: the inhibition at 1 µM on delta-5-desaturase [1] was found to be 96%. Moreover, the inhibition at 10 µM at delta-5-desaturase [2] and against delta-5-desaturase [3] was 97% each time.
On to `O=c1[nH]ccc2c(=O)n(-c3ccc(OCC(F)(F)F)cc3)c(OCC(F)(F)F)nc12` [Example 31, 2-(2,2,2-trifluoroethoxy)-3-[4-(2,2,2-trifluoroethoxy)phenyl]-3,7-dihydropyrido[3,4-d]pyrimidine-4,8-dione], for which the inhibition at 1 µM against delta-5-desaturase [1] worked out at 96%. Moreover, the inhibition at 10 µM turned out to be 98% on delta-5-desaturase [2] and 96% against delta-5-desaturase [3].
Take `CCOc1nc2c(=O)[nH]ccc2c(=O)n1-c1ccc(OCC(F)(F)F)cc1` [Example 32, 2-ethoxy-3-[4-(2,2,2-trifluoroethoxy)phenyl]-3,7-dihydropyrido[3,4-d]pyrimidine-4,8-dione]: on delta-5-desaturase [1], the inhibition at 1 µM was found to be 88%. Also, the results for the inhibition at 10 µM on delta-5-desaturase [2] and against delta-5-desaturase [3] were 98% and 96%, respectively.
The corresponding values for `CCSc1nc2c(OC)nccc2c(=O)n1-c1ccc(OCC(F)(F)F)cc1` [Example 33, 2-(ethylsulfanyl)-8-methoxy-3-[4-(2,2,2-trifluoroethoxy)phenyl]pyrido[3,4-d]pyrimidin-4(3H)-one] are 93%, 96% and 101%.
The corresponding values for `CCOc1nc2c(OCCOC)nccc2c(=O)n1-c1ccc(OCC(F)(F)F)cc1` [Example 34, 2-ethoxy-8-(2-methoxyethoxy)-3-[4-(2,2,2-trifluoroethoxy)phenyl]pyrido[3,4-d]pyrimidin-4(3H)-one] are 93%, 88% and 98%.
